# Patent US20030091555A1, “Bactericidal composition containing peptide and chelating agent” (NATIONAL AGRICULTURAL RESEARCH ORGANIZATION, priority 2001, published 2003)
# Columns and labels:
# [1] = system: Salmonella typhimurium JCM 6977; assay: MIC/MBC by viable count after 1 day cultivation; type: cell-based; details: for synergistic effects with thionin, compared with EDTA-2Na: with alpha-type thionin of wheat 10 μg/mL; for MBC: Salmonella enterica
# Protocol: (§1) Bacillus cereus was inoculated into a sensitive measurement medium (manufactured by Nissui Pharmaceutical Co., Ltd., Tokyo, Japan), and other bacteria such as food poisoning bacteria were inoculated into an LB medium (1% polypeptone, 0.5% yeast extract, 0.5% sodium chloride, pH 7.2) and incubated at 37° C. for 1 day.
# (§2) Then, after adding predetermined amounts of thionin and EDTA, the bacteria were inoculated so that the concentration of bacteria was about 1×10^6 cells/mL. After cultivating the bacteria for 1 day for other bacteria, the viable count was measured by a method of diluted plate culture. The concentration in which the viable count was decreased to 1/100 or less was defined as minimum bactericidal concentration (MBC) and the concentration in which the viable count was not increased was defined as minimum inhibitory concentration (MIC). The results obtained are shown in Tables 1, 2 and 3, as well as in FIG. 1.
# [2] = system: Escherichia coli 06 JCM 5491; assay: MIC/MBC by viable count after 1 day cultivation; type: cell-based; details: for synergistic effects with thionin, compared with EDTA-2Na: with alpha-type thionin of wheat 10 μg/mL; for MBC: Escherichia coli
# Protocol: as §1, §2
# E. coli = details: high concentration (10 mM); cited from earlier work
# V. parahaemolyticus = details: high concentration (10 mM); cited from earlier work
# [3] = as food additive; cited from earlier work
# [4] = system: test bacteria (food poisoning bacteria); assay: MIC/MBC, text summary over the test bacteria; type: cell-based; details: for MBC: added alone
# Protocol: as §1, §2
# [5] = system: Escherichia coli 01:K1:H7 JCM 1649; assay: MIC/MBC by viable count after 1 day cultivation; type: cell-based; details: LB medium, 37° C.
# Protocol: as §1, §2
# [6] = system: Salmonella enteritidis IFO 3313; assay: MIC/MBC by viable count after 1 day cultivation; type: cell-based; details: LB medium, 37° C.
# Protocol: as §1, §2
# Bacillus cereus JCM 2152 = assay: MIC/MBC by viable count after 1 day cultivation; type: cell-based; details: sensitive measurement medium, 37° C.
# Protocol: as §1, §2
# [7] = system: Vibrio parahaemolyticus IFO 12711; assay: MIC/MBC by viable count after 1 day cultivation; type: cell-based; details: LB medium, 37° C.
# Protocol: as §1, §2
# [8] = system: Bacillus cereus IFO 15305; assay: MIC/MBC by viable count after 1 day cultivation; type: cell-based; details: sensitive measurement medium, 37° C.
# Protocol: as §1, §2
# trypsin = target: T1, trypsin (Bos taurus, UniProt P00760); details: cited from earlier work
# T1 construct: gene PRSS1
# T1 sequence (P00760 24-246): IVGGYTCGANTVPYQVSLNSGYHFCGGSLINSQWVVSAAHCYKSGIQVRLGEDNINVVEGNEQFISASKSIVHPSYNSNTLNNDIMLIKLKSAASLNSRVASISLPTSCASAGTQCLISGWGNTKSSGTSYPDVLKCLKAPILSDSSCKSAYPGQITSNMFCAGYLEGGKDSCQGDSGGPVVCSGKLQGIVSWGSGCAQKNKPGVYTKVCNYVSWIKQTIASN
# guinea pig = details: administered once with 103 to 229 mg/kg body weight, observed for 7 days; cited from earlier work
# [9] = EDTA-2Na added alone, LB medium, 37° C., 1 day
# [10] = thionin added alone, LB medium, 37° C., 1 day
compound,measurement,setting,value
"O=C([O-])CN(CCN(CC(=O)[O-])CC(=O)[O-])CC(=O)[O-].[Na+].[Na+].[Na+].[Na+] [EDTA-4Na, EDTA-tetrasodium salt]","synergistic effects with thionin, compared with EDTA-2Na",[1],identical to or higher than that of EDTA-2Na
same,"synergistic effects with thionin, compared with EDTA-2Na",[2],identical to or higher than that of EDTA-2Na
"O=C(O)CN(CCN(CC(=O)O)CC(=O)O)CC(=O)O [EDTA, ethylenediaminetetraacetic acid]",antibacterial activity,E. coli,shows antibacterial activity
same,antibacterial activity,V. parahaemolyticus,shows antibacterial activity
same,ADI (Acceptable Daily Intake),[3],2.5 mg/kg body weight
same,MBC,[1]; Thionin (10 μg/mL) +: with alpha-type thionin of wheat,0.0001 µM
same,MBC,[1]; Thionin (10 μg/mL) −: without alpha-type thionin of wheat,0.005 µM
same,"synergistic effects with thionin, compared with EDTA-2Na",[1],identical to or higher than that of EDTA-2Na
same,MBC,"[2]; JCM5491, Thionin (10 μg/mL) +: with alpha-type thionin of wheat",0.001 µM
same,MBC,"[2]; JCM5491, Thionin (10 μg/mL) −: without alpha-type thionin of wheat",0.005 µM
same,"synergistic effects with thionin, compared with EDTA-2Na",[2],identical to or higher than that of EDTA-2Na
"O=C([O-])CN(CCN(CC(=O)[O-])CC(=O)O)CC(=O)O.[Na+].[Na+] [EDTA-2Na, EDTA disodium]",MBC of EDTA-2Na as compared with the addition of EDTA-2Na alone,"[4]; 10 μg/mL alpha-type thionin of wheat added simultaneously, food poisoning bacteria",decreased
same,MBC,[4]; Salmonella sp. and E. coli,≥ 10000 µM
same,MBC,"[4]; other bacteria (not Salmonella sp., E. coli)",≤ 1000 µM
same,MBC EDTA-2Na,[1]; [9],20000 µM
same,MBC EDTA-2Na,[5]; EDTA-2Na added alone,50000 µM
same,MBC EDTA-2Na,[6]; EDTA-2Na added alone,50< mM
same,MBC EDTA-2Na,Bacillus cereus JCM 2152; EDTA-2Na added alone,500 µM
same,MBC EDTA-2Na,[7]; EDTA-2Na added alone,1000 µM
same,MBC EDTA-2Na,[2]; [9],10000 µM
same,MBC EDTA-2Na,[8]; EDTA-2Na added alone,200 µM
thionin [reference compound],decomposition by a digestive enzyme,trypsin,rapid decomposition
same,abnormality after administration,guinea pig,no abnormality was observed
same,MIC Thionin,[1]; [10],30 µg/mL
same,MIC Thionin,[5]; thionin added alone,100< μg/mL
same,MIC Thionin,[6]; thionin added alone,100< μg/mL
same,MIC Thionin,Bacillus cereus JCM 2152; thionin added alone,100 µg/mL
same,MIC Thionin,[7]; thionin added alone,20 µg/mL
same,MIC Thionin,[2]; [10],100 µg/mL
same,MIC Thionin,[8]; thionin added alone,100< μg/mL
